Laboratory results reported in US20040259948A1, “Reciprocal regulation of inflammation and lipid metabolism by liver X receptors” (priority 2003, published 2004).

How the values were obtained:
[1] = tested on: Thioglycolate-elicited peritoneal macrophages; assay: Macrophage response to E. coli infection: iNOS mRNA and NO production; assay type: cell-based, murine; details: 18 h, pretreated with 1 μM ligand, real-time quantitative PCR
Experimental: Thioglycolate-elicited peritoneal macrophages were infected in vitro with Escherichia coli. After 18 hours, expression of inducible nitric oxide synthase (iNOS) mRNA and nitric oxide (NO) production were assessed. […] Cells were then infected with E. coli (A, B) or treated with 100 ng/ml LPS(C, D, E) as indicated. After 18 h, NO production was determined using a colorimetric assay (A, D), or mRNA levels were determined using real-time quantitative PCR assays (B, C, E).
Thioglycolate-elicited peritoneal macrophages were cultured in RPMI containing 10% fetal bovine serum (FBS). […] For ligand treatments, cells were in cultured medium supplemented with 5% lipoprotein-deficient serum (LPDS) and ligands for 18 h before stimulation. […] NO production was determined spectrophotometrically (Castrillo, A. et al. 2000 Mol Cell Biol 20:1692-1698).
Total RNA was extracted using Trizol reagent (Life Technologies, Inc.). […] Real-time quantitative PCR (TaqMan) analysis was performed using an Applied Biosystems 7700 sequence detector.

[2] = tested on: Thioglycolate-elicited murine peritoneal macrophages; assay: LPS-stimulated macrophages: NO production, iNOS and ABCA1 mRNA; assay type: cell-based; details: for iNOS mRNA: 100 ng/ml LPS, 18 h, pretreated with 1 μM ligand, real-time quantitative PCR
Experimental: To investigate the role of LXRs in host defense, the influence of LXR agonists on macrophage responses to bacterial pathogens was tested. Thioglycolate-elicited peritoneal macrophages were infected in vitro with Escherichia coli. After 18 hours, expression of inducible nitric oxide synthase (iNOS) mRNA and nitric oxide (NO) production were assessed. […] This repression occurs over the same concentration range needed to induce the established LXR target gene ATP-binding cassette transporter A1 (ABCA1). A, LXR agonist inhibits nitrite production in response to bacterial infection. […] Cells were then infected with E. coli (A, B) or treated with 100 ng/ml LPS(C, D, E) as indicated. After 18 h, NO production was determined using a colorimetric assay (A, D), or mRNA levels were determined using real-time quantitative PCR assays (B, C, E). […] The inhibitory effect of LXR agonists on iNOS expression was dose-dependent and occurred over the same range of concentration as that required to induce ATP-binding cassette transporter A1 (ABCA1) (FIGS. 1D and E).
The anti-inflammatory activity of LXR ligands can be separated from the induction of lipid metabolism genes such as ABCA1. Murine peritoneal macrophages were treated with LPS to induce iNOS gene expression (FIG. 8A) and were assayed for ABCA1 mRNA by real time qPCR (FIG. 8B). NOx production was measured by colorimetric assay. […] The identification of LXR agonists with only anti-inflammatory activity should greatly increase the usefulness of such compounds as therapeutic agents, because they lack the unwanted side effects on lipid metabolism such as elevation of triglyceride levels.
Cell culture and transfections. Thioglycolate-elicited peritoneal macrophages were cultured in RPMI containing 10% fetal bovine serum (FBS). RAW 264.7 cells were cultured in DMEM containing 10% FBS. For ligand treatments, cells were in cultured medium supplemented with 5% lipoprotein-deficient serum (LPDS) and ligands for 18 h before stimulation. Bacterial infection in vitro was performed as described (Chen, L. M. et al. 1996 Mol Microbiol 21:1101-1115). Transient transfections of RAW 264.7 cells were performed in triplicate in 48-well plates using Superfect reagent (Life Technologies). After transfection, cells were incubated in medium containing 10% LPDS and the indicated ligands for 18 h before stimulation with LPS for an additional 18 h. Luciferase activity was normalized to β-galactosidase activity. NO production was determined spectrophotometrically (Castrillo, A. et al. 2000 Mol Cell Biol 20:1692-1698).
RNA and protein analysis. Total RNA was extracted using Trizol reagent (Life Technologies, Inc.). Northern blot analysis was carried out as described using radiolabeled cDNA probes (Tontonoz, P. et al. 1998 Cell 93:241-252). Real-time quantitative PCR (TaqMan) analysis was performed using an Applied Biosystems 7700 sequence detector. Two-step real-time PCR was performed as described (Joseph, S. B. et al. 2002 J Biol Chem 277:11019-11025). The primers and probes used are as follows: […]

[3] = tested on: Thioglycolate-elicited murine peritoneal macrophages; assay: Expression of NF-κB target genes in LPS-treated macrophages (northern blot, real-time quantitative PCR); assay type: cell-based
Experimental: LPS is an established inducer of the NF-κB signaling pathway in macrophages. Several genes inhibited by LXR ligands in the array studies above are established targets of NF-κB. To further investigate the role of LXRs in NF-κB-dependent gene expression, we analyzed expression of NF-κB target genes in peritoneal macrophages from wild-type mice. […] Expression of NF-κB target genes was determined by northern blot (A) or by real-time quantitative PCR assays (B). 36B4 was used as a control for RNA loading and integrity. […] RNA and protein analysis. Total RNA was extracted using Trizol reagent (Life Technologies, Inc.). Northern blot analysis was carried out as described using radiolabeled cDNA probes (Tontonoz, P. et al. 1998 Cell 93:241-252). Real-time quantitative PCR (TaqMan) analysis was performed using an Applied Biosystems 7700 sequence detector. Two-step real-time PCR was performed as described (Joseph, S. B. et al. 2002 J Biol Chem 277:11019-11025). The primers and probes used are as follows: […]

C57B1/6 mice = assay: Murine model of irritant contact dermatitis (TPA-treated ear); assay type: in vivo; details: topical 20 μl of 10 mM at 45 min and 4 h post-TPA; 18 h; relative to vehicle-treated ear
Experimental: The effects of LXR ligands in both acute and chronic inflammatory contexts were evaluated. First, the effects of LXR agonists in a murine model of irritant contact dermatitis (Sheu, M. Y. et al. 2002 J Invest Dermatol 118:94-101) were studied. Ears of C57B1/6 mice (n=5 per group) were treated topically with 12-O-tetradecanoylphorbol-13-acetate (TPA) (left ear) or with vehicle (right ear). […] Thickness and weight of 6-mm punch biopsies were determined for each group after 18 h TPA treatment and are presented relative to vehicle-treated ear. […] Analysis of hematoxylin and eosin (H&E) stained sections of the TPA-treated ears confirmed a reduction in edema and inflammatory infiltrate by LXR agonist. Thus, two structurally unrelated LXR agonists have anti-inflammatory activity in a model of cutaneous inflammation.
Animals. Mice on a mixed background (C57B1/6 and 129v) and Apoe^−/− mice on a C57B1/6 background were maintained on standard chow. […] Irritant contact dermatitis was induced as described (Sheu, M. Y. et al. 2002 J Invest Dermatol 118:94-101). Briefly, 10 μl of 0.03% 12-O-tetradecanoylphorbol-13-acetate (TPA) in acetone was applied to the left ears of male mice. The right ears were treated with vehicle alone. […] After 18 h of TPA treatment, the thickness and weight of 6-mm punch biopsies were determined. Statistical analysis was performed using Student's t-test. Experiments were conducted in accordance of the Animal Research Committee of the University of California, Los Angeles.

[4] = tested on: Thioglycolate-elicited murine peritoneal macrophages; assay: IL-1β- or TNFα-induced inflammatory gene expression in macrophages; assay type: cell-based; details: pretreated 18 h; IL-1β or TNFα (50 ng/ml); real-time quantitative PCR
Experimental: Next, the influence of LXR agonists on inflammatory gene expression induced by IL-1β and TNFα, which have been implicated in the pathogenesis of atherosclerosis, was tested. […] Gene expression was detected by real-time quantitative PCR assays. […] Total RNA was isolated from individual aortas and gene expression was measured by real-time quantitative PCR. P<0.05 for MMP-9 (*) and P<0.01 (**) for ABCA1. […] Thus, LXR agonist reduces expression of an established inflammatory mediator in the vessel wall. Cell culture and transfections. Thioglycolate-elicited peritoneal macrophages were cultured in RPMI containing 10% fetal bovine serum (FBS). RAW 264.7 cells were cultured in DMEM containing 10% FBS. For ligand treatments, cells were in cultured medium supplemented with 5% lipoprotein-deficient serum (LPDS) and ligands for 18 h before stimulation. Bacterial infection in vitro was performed as described (Chen, L. M. et al. 1996 Mol Microbiol 21:1101-1115). Transient transfections of RAW 264.7 cells were performed in triplicate in 48-well plates using Superfect reagent (Life Technologies). After transfection, cells were incubated in medium containing 10% LPDS and the indicated ligands for 18 h before stimulation with LPS for an additional 18 h. Luciferase activity was normalized to β-galactosidase activity. NO production was determined spectrophotometrically (Castrillo, A. et al. 2000 Mol Cell Biol 20:1692-1698). RNA and protein analysis. Total RNA was extracted using Trizol reagent (Life Technologies, Inc.). Northern blot analysis was carried out as described using radiolabeled cDNA probes (Tontonoz, P. et al. 1998 Cell 93:241-252). Real-time quantitative PCR (TaqMan) analysis was performed using an Applied Biosystems 7700 sequence detector. Two-step real-time PCR was performed as described (Joseph, S. B. et al. 2002 J Biol Chem 277:11019-11025). The primers and probes used are as follows: […]

[5] = tested on: human smooth muscle cells; assay: TNF-induced gene expression in human smooth muscle cells; assay type: cell-based; details: TNF 6 hours; real time qPCR
Experimental: (§1) Activation of LXR by synthetic ligands inhibits inflammatory gene expression in multiple human cell types (FIG. 7A-C). TNFα plays a role in the induction of inflammatory mediators in during inflammation. Cells were treated for 6 hours with TNF as indicated and gene expression was measured by real time qPCR.

[6] = tested on: human aortic endothelial cells; assay: TNF-induced gene expression in human aortic endothelial cells; assay type: cell-based; details: TNF 6 hours; real time qPCR
Experimental: as §1

[7] = tested on: human peripheral blood mononuclear cells; assay: TNF-induced gene expression in human peripheral blood mononuclear cells; assay type: cell-based; details: TNF 6 hours; real time qPCR
Experimental: as §1

Row | Molecule | iNOS mRNA [1] | iNOS mRNA [2] | activation of ABCA1 gene expression, T1317 compared with GW3965 ([2]; increasing doses, real time qPCR, FIG. 8B) | receptor-independent induction of IL-6 [3] | receptor-independent induction of MCP-1 [3] | ear thickness (C57B1/6 mice) | ear weight (6-mm punch biopsies) (C57B1/6 mice) | induction of IL-6 expression [4] | induction of iNOS expression [4] | TNF-induced gene expression [5] | TNF-induced gene expression [6] | TNF-induced gene expression [7]
1 | Cc1cc(SCc2sc(-c3ccc(C(F)(F)F)cc3)nc2C)ccc1OCC(=O)O [GW1516] | minimal effects | minimal effects | – | – | – | – | – | – | – | – | – | –
2 | O=S(=O)(c1ccccc1)N(CC(F)(F)F)c1ccc(C(O)(C(F)(F)F)C(F)(F)F)cc1 [T1317, N-(2,2,2-trifluoro-ethyl)-N-[4-(2,2,2-trifluoro-1-hydroxy-1-trifluoromethyl-ethyl)-phenyl]-benzenesulfonamide] | – | – | more effective activator | modest receptor-independent induction | modest receptor-independent induction | reduced | reduced | inhibit | inhibit | inhibited | inhibited | inhibited
3 | GW7647 | minimal effects | minimal effects | – | – | – | – | – | – | – | – | – | –
